The test system of the series is Rosacea patients. Nature of the series: Clinical study with rosacea patients. Particulars: human, in vivo.

Data on one substance can be found in patent publication US9629856B2, “Compositions and methods for the treatment of skin diseases and disorders using antimicrobial peptide sequestering compounds” (Anteis SA, priority 2010, dated 2017).

Procedure: The following assessments or evaluations were performed before the treatment (Visit 1) and during the treatment period after about 2 weeks (Visit 2), about 4 weeks (Visit 3) and about 8 weeks (Visit 4): Tolerability including burning/stinging/tingling, pruritis, dryness, scaling/peeling and atrophy were evaluated of the face by the investigator (i.e., dermatologist) according to the following scale: 0=none, 1=mild, 2=moderate, 3=severe. Furthermore, any adverse events experienced by subject during the study period, whether related to the treatment or not, were recorded. Assessment of overall skin conditions of the face was performed by the investigator (i.e., dermatologist) according to the following scoring system: [table] Count of total number of inflammatory lesions (papules and pustules) on the face by the investigator (i.e., dermatologist). Evaluation of the severity of both redness/erythema and telangiectasia on the face by the investigator (i.e., dermatologist) according to the following scale: [table] […] Clinical photographs were taken at all visits utilizing standardized conditions for all subjects. […] In case possible, cross-polarized, parallel-polarized and visible light images were acquired along with both blue fluorescence and ultraviolet fluorescence images.

Consider “Hydroxypropyl Starch Phosphate [Structure XL]”, for which the immunotoxic effects result was “no evidence of immunotoxic effects”.
